Structures can show the parent of a compound that is named as a salt.
What was measured:
[1] = tested on: GC patient-derived xenografts (PDX); experiment: Tumor growth inhibition in GC patient-derived xenograft (PDX) models; format: in vivo, NOD/SCID mice; conditions: for TGIs (%): gimatecan 0.2 mg/kg daily oral gavage, irinotecan 20 mg/kg weekly i.p., 3 weeks; for antitumor activity compared with control groups: all five xenografts
Procedure: Establishment and serial passaging of GC patient-derived xenografts (PDX) models were as previously described. All procedures were performed under sterile conditions at an SPF facility and carried out in accordance with the guide for the Care and Use of Laboratory Animals of the National Institutes of Health. Animal experiments were approved by an independent ethics committee of Peking University Cancer Hospital.
Five PDX tissues were subcutaneously inoculated into the flanks of 6-week-old female non-obese diabetic/severe combined immunodeficiency (NOD/SCID) mice. When tumors reached 150–250 mm^3, mice were randomized to three groups (N = 5/group) with similar tumor volumes: (1) control group (physiological saline 100 µl daily, by orally gavage), (2) gimatecan group (gimatecan 0.2 mg/kg daily, by orally gavage) and (3) irinotecan group (irinotecan 20 mg/kg via weekly intraperitoneal injection). All animals were treated for 3 weeks. Tumor size and body weight were measured twice a week, and tumor volume was calculated using the following formula: V = (L × W^2)/2 (V, volume; L, length; W, width). Tumor growth inhibition (TGI) was calculated using the following formula: TGI = 1 − ΔT/ΔC × 100% (ΔT = tumor volume changes of the drug treated group, ΔC = tumor volume changes of the control group on the final day of the study).
(§1) A PDX model was established by subcutaneously transplanting tumor tissues of a patient into NOD/SCID mice and PDX 1–5 indicated PDX models from 5 different GC patients. PDX tissues were subcutaneously inoculated into mice, and when the tumor size reached 150–250 mm^3, mice (n = 5 in each group) were treated with buffer control or inhibitors. Tumor volumes were presented as mean ± SD. The antitumor activity is depicted by tumor growth inhibition (TGI). […] (ΔT = tumor volume change of the drug-treated group, ΔC = tumor volume change of the control group on the final day of the study). *p < 0.05, **p < 0.01, ***p < 0.001. b Immunohistochemical staining for Ki-67 of xenografts on day 22 of treatment from four PDX models. The ki-67 index, marker of cell proliferation, was calculated as the proportion of positive tumor cell nuclei in all tumor cells examined and labeled in red in the images. Scale bar represents 100 µm TEXT PRINTED IN THE PICTURE: (b) Vehicle: PDX 2: 100%; PDX 3: 70%; PDX 4: 70%; PDX 5: 40% | (b) Irinotecan: PDX 2: 60%; PDX 3: 70%; PDX 4: 60%; PDX 5: 50% | (b) Gimatecan: PDX 2: 60%; PDX 3: 10%; PDX 4: 40%; PDX 5: 10% DOUBTS OF THE COPYIST ABOUT THIS PICTURE: Vehicle, PDX 3: 70% or 20% (blurred red print on the image) / Vehicle, PDX 4: 70% or 20% / Vehicle, PDX 5: 40%, first digit blurred / Irinotecan, PDX 2: 60% or 80% or 50% / Irinotecan, PDX 3: 70% or 20% / Irinotecan, PDX 4: 60% or 50% or 80% / Irinotecan, PDX 5: 50% or 60% or 30% / Gimatecan, PDX 2: 60% or 50% or 80% / Gimatecan, PDX 4: 40%, first digit blurred / The measure of the percentages in panel b is not printed in the picture

Ki-67 in GC PDX tissues = experiment: Immunohistochemistry staining of Ki-67 in xenograft tissues; format: in vivo, NOD/SCID mice; conditions: day 22 of treatment
Procedure: After mice were sacrificed, xenograft tissues were isolated, and formalin-fixed paraffin embedded (FFPE) tissue sections were prepared. After deparaffinization, hydration, endogenous peroxidase treatment, and retrieval, 4-μm-thick FFPE sections were incubated with primary antibodies (1:100) overnight at 4 °C. The signal was assayed after incubation with IgG-HRP polymer (ZSGB-BIO, Beijing, China) and diaminobenzidine substrate. Sections were interpreted by pathologists from the Department of Pathology of Peking University Cancer Hospital who were blinded to this study. The scoring standard of Ki-67 was consistent with a previous report.
as §1

CCc1c2c(nc3ccc(OC(=O)N4CCC(N5CCCCC5)CC4)cc13)-c1cc3c(c(=O)n1C2)COC(=O)[C@]3(O)CC [Irinotecan, irinotecan hydrochloride]
TGIs (%) ([1]; PDX model 1): 75.4% | TGIs (%) ([1]; PDX model 2): 76.1% | TGIs (%) ([1]; PDX model 3): 24.1% | TGIs (%) ([1]; PDX model 4): 15.1% | TGIs (%) ([1]; PDX model 5): 40.6% | antitumor activity compared with control groups [1]: significant antitumor activity | Ki-67 (%) (Ki-67 in GC PDX tissues; PDX model 2, control 100): 60% | Ki-67 (%) (Ki-67 in GC PDX tissues; PDX model 3, control 70): 70% | Ki-67 (%) (Ki-67 in GC PDX tissues; PDX model 4, control 70): 60% | Ki-67 (%) (Ki-67 in GC PDX tissues; PDX model 5, control 40): 50%

CC[C@@]1(O)C(=O)OCc2c1cc1n(c2=O)Cc2c-1nc1ccccc1c2/C=N/OC(C)(C)C [Gimatecan, 7-t-butoxyiminomethylcamptothecin]
TGIs (%) ([1]; PDX model 1): 110.1% | TGIs (%) ([1]; PDX model 2): 106.6% | TGIs (%) ([1]; PDX model 3): 84.4% | TGIs (%) ([1]; PDX model 4): 91.7% | TGIs (%) ([1]; PDX model 5): 108.7% | antitumor activity compared with control groups [1]: significant antitumor activity | Ki-67 (%) (Ki-67 in GC PDX tissues; PDX model 2, control 100): 60% | Ki-67 (%) (Ki-67 in GC PDX tissues; PDX model 3, control 70): 10% | Ki-67 (%) (Ki-67 in GC PDX tissues; PDX model 4, control 70): 40% | Ki-67 (%) (Ki-67 in GC PDX tissues; PDX model 5, control 40): 10%
